≈ marks a conversion by molar mass, not a printed value.
Columns and labels:
[1] = tested on: fluconazole-susceptible C. albicans strain: CAAL93; experiment: Antifungal susceptibility, spectrofluorimetric microdilution, CAAL93; format: cell-based; settings: Candida albicans, read-out: MIC values CAAL93
Description: (§1) Eight strains of Candida spp. with various azoles-susceptibilities were used: • One fluconazole-susceptible C. albicans strain: CAAL93 • Two fluconazole-resistant C. albicans strains: CAAL111 (efflux pump) and CAAL117 (erg11 mutations+voriconazole-resistant) • five fluconazole-resistant Candida non albicans strains: C. krusei (CAKR7, CAKR8), C. glabrata (CAGL2), C. parapsilosis s.l. (CAPA1, CAPA2).
(§2) Antifungal susceptibility was evaluated with a spectrofluorimetric microdilution method.

[2] = tested on: A. fumigatus susceptible strain ASFU78; experiment: Antifungal susceptibility, spectrofluorimetric microdilution, ASFU78; format: cell-based, Aspergillus fumigatus; settings: Aspergillus fumigatus, read-out: MIC values ASFU78
Description: (§3) Eleven strains of A. fumigatus with various itraconazole susceptibility were used: • Five susceptible strains: ASFU7, ASFU35A, ASFU38A, ASFU76 and ASFU78. • Six itraconazole-resistant strains: ASFU77 (erg11 mutation), ASFU13, ASFU17, ASFU19, ASFU20, ASFU23.
(§4) Antifungal susceptibility was evaluated with a spectrofluorimetric microdilution method. MIC was the concentration that was able to inhibit 80% of fluorescence measured in the control wells.

[3] = tested on: A. fumigatus susceptible strain ASFU7; experiment: Antifungal susceptibility, spectrofluorimetric microdilution, ASFU7; format: cell-based, Aspergillus fumigatus; settings: Aspergillus fumigatus, read-out: MIC values ASFU7
Description: as §3, §4

[4] = tested on: Candida albicans strain (CAAL93); experiment: Murine systemic candidiasis; format: in vivo; settings: neutropenic Swiss mice, CAAL93 i.v., 10 mg/kg per os once a day for 5 days
Description: Transiently neutropenic female Swiss mice were used for experiments on systemic candidiasis and invasive aspergillosis.
Mice were inoculated intravenously with a Candida albicans strain (CAAL93). Treatment was administrated once a day (10 mg/kg per os) for 5 days. […] Fungal burden of the kidney was evaluated in dead animals during the experimentation or in animals sacrificed at the end of the experimentation.

[5] = tested on: promastigote stage of a Leishmania mexicana strain; experiment: Anti-Trypanosomatidae activity, promastigote stage, spectrofluorimetric microdilution; format: cell-based
Description: Compounds were evaluated on the promastigote stage of a Leishmania mexicana strain using a spectrofluorimetric microdilution method. Inhibitory concentration 50 (IC50) was the concentration that inhibited 50% of the control growth.

[6] = tested on: A. fumigatus susceptible strain ASFU76; experiment: Antifungal susceptibility, spectrofluorimetric microdilution, ASFU76; format: cell-based, Aspergillus fumigatus; settings: Aspergillus fumigatus, read-out: MIC values ASFU76
Description: as §3, §4

[7] = tested on: A. fumigatus susceptible strain ASFU38A; experiment: Antifungal susceptibility, spectrofluorimetric microdilution, ASFU38A; format: cell-based, Aspergillus fumigatus; settings: Aspergillus fumigatus, read-out: MIC values ASFU38A
Description: as §3, §4

[8] = tested on: fluconazole-resistant C. parapsilosis s.l. (CAPA2); experiment: microbe, parasite or virus in culture; format: cell-based; settings: Lodderomyces parapsilosis, read-out: MIC values CAPA2
Description: as §1, §2

[9] = tested on: fluconazole-resistant C. krusei (CAKR7); experiment: microbe, parasite or virus in culture; format: cell-based; settings: Pichia kudriavzevii, read-out: MIC values CAKR7
Description: as §1, §2

[10] = tested on: fluconazole-resistant C. glabrata (CAGL2); experiment: microbe, parasite or virus in culture; format: cell-based; settings: Nakaseomyces glabratus, read-out: MIC values CAGL2
Description: as §1, §2

[11] = tested on: fluconazole-resistant C. krusei (CAKR8); experiment: microbe, parasite or virus in culture; format: cell-based; settings: Pichia kudriavzevii, read-out: MIC values CAKR8
Description: as §1, §2

[12] = tested on: fluconazole-resistant C. albicans strain CAAL111 (efflux pump); experiment: microbe, parasite or virus in culture; format: cell-based; settings: Candida albicans, read-out: MIC values CAAL111
Description: as §1, §2

[13] = tested on: fluconazole-resistant C. parapsilosis s.l. (CAPA1); experiment: microbe, parasite or virus in culture; format: cell-based; settings: Lodderomyces parapsilosis, read-out: MIC values CAPA1
Description: as §1, §2

[14] = Cytotoxicity on HeLa cells; format: cell-based, Human; settings: human, 50% inhibition of control fluorescence
Description: Hela Human cell line was used in view to evaluate cytotoxicity. It was evaluated with a spectrofluorimetric microdilution method. IC50 was the concentration that was able to inhibit 50% of fluorescence measured in the control wells.

[15] = tested on: A. fumigatus susceptible strain ASFU35A; experiment: Antifungal susceptibility, spectrofluorimetric microdilution, ASFU35A; format: cell-based, Aspergillus fumigatus; settings: Aspergillus fumigatus, read-out: MIC values ASFU35A
Description: as §3, §4

[16] = tested on: A. fumigatus itraconazole-resistant strain ASFU77 (erg11 mutation); experiment: Antifungal susceptibility, spectrofluorimetric microdilution, ASFU77; format: cell-based, Aspergillus fumigatus; settings: for MIC: Aspergillus fumigatus, read-out: MIC values ASFU77
Description: as §3, §4

[17] = tested on: A. fumigatus itraconazole-resistant strain ASFU17; experiment: Antifungal susceptibility, spectrofluorimetric microdilution, ASFU17; format: cell-based, Aspergillus fumigatus; settings: Aspergillus fumigatus, read-out: MIC values ASFU17
Description: as §3, §4

[18] = tested on: A. fumigatus itraconazole-resistant strain ASFU13; experiment: Antifungal susceptibility, spectrofluorimetric microdilution, ASFU13; format: cell-based, Aspergillus fumigatus; settings: for MIC: Aspergillus fumigatus, read-out: MIC values ASFU13
Description: as §3, §4

[19] = tested on: A. fumigatus itraconazole-resistant strain ASFU20; experiment: Antifungal susceptibility, spectrofluorimetric microdilution, ASFU20; format: cell-based, Aspergillus fumigatus; settings: for MIC: Aspergillus fumigatus, read-out: MIC values ASFU20
Description: as §3, §4

[20] = tested on: A. fumigatus itraconazole-resistant strain ASFU19; experiment: Antifungal susceptibility, spectrofluorimetric microdilution, ASFU19; format: cell-based, Aspergillus fumigatus; settings: Aspergillus fumigatus, read-out: MIC values ASFU19
Description: as §3, §4

[21] = tested on: fluconazole-resistant C. albicans strain CAAL117 (erg11 mutations+voriconazole-resistant); experiment: microbe, parasite or virus in culture; format: cell-based; settings: for MIC: Candida albicans, read-out: MIC values CAAL117; for fold more active than voriconazole against CAAL117: compared with voriconazole
Description: as §1, §2

[22] = tested on: A. fumigatus itraconazole-resistant strain ASFU23; experiment: Antifungal susceptibility, spectrofluorimetric microdilution, ASFU23; format: cell-based, Aspergillus fumigatus; settings: for MIC: Aspergillus fumigatus, read-out: MIC values ASFU23
Description: as §3, §4

Compound | MIC [1] [µg/mL] | MIC [2] [µg/mL] | MIC [3] [µg/mL] | MIC [6] [µg/mL] | MIC [7] [µg/mL] | MIC [9] [µg/mL] | MIC [10] [µg/mL] | MIC [11] [µg/mL] | MIC [12] [µg/mL] | MIC [15] [µg/mL] | MIC [16] [µg/mL] | MIC [17] [µg/mL] | MIC [18] [µg/mL] | MIC [19] [µg/mL] | MIC [20] [µg/mL] | MIC [21] [µg/mL] | fold more active than voriconazole against CAAL117 [21] [fold] | melting point [°C] | MIC [22] [µg/mL] | also measured
C[C@@H](n1ccc2nc(-c3ccccc3)cn2c1=O)[C@](O)(Cn1cncn1)c1ccc(F)cc1F [Compound 29, 6-[(1R,2R)-2-(2,4-Difluorophenyl)-2-hydroxy-1-methyl-3-(1H-1,2,4-triazol-1-yl)propyl]-2-phenylimidazo[1,2-c]pyrimidin-5-one] | < 0.001 | 5.93 ± 0.72 (≈ 12.8 µM) | 2.49 ± 0.13 (≈ 5.38 µM) | 6.66 ± 0.53 (≈ 14.4 µM) | 6.86 ± 1 (≈ 14.8 µM) | 1.28 ± 0.33 (≈ 2.77 µM) | 0.15 ± 0.01 (≈ 0.324 µM) | 0.07 ± 0.02 (≈ 0.151 µM) | 0.005 ± 0.002 (≈ 0.0108 µM) | 6.36 ± 1.42 (≈ 13.8 µM) | 28.2 ± 21.9 (≈ 61 µM) | – | – | – | – | – | – | – | – | survival compared with the non-treated group ([4]; 28 days (compound 51, 14 days), p<0.05): significant longer survival; activity on fungal burden of the kidney compared to FLC ([4]; p<0.05): significantly higher when compared to FLC; fungal burden of the kidney ([4]; p<0.05 (compound 51 p<0.001)): significantly decreased; effectiveness against the promastigote stage of L. Mexicana, in words [5]: effective; IC50 ([5]; Leishmania mexicana, promastigote stage, 50% of control growth, read-out: L. mexicana (IC50 μM)): 2.8 ± 0.3 µM; MIC [8]: 0.007 ± 0.004 µg/mL (≈ 0.0151 µM); MIC [13]: 0.009 ± 0.003 µg/mL (≈ 0.0195 µM); IC50 [14]: 25 µM
C[C@@H](n1ncc2cc(-c3ccc(Cl)cc3)cn2c1=O)[C@](O)(Cn1cncn1)c1ccc(F)cc1F [Compound 48, 7-(4-Chlorophenyl)-3-[(1R,2R)-2-(2,4-difluorophenyl)-2-hydroxy-1-methyl-3-(1,2,4-triazol-1-yl)propyl]-3H-pyrrolo[1,2-d][1,2,4]triazin-4-one] | < 0.001 | 6.26 ± 0.73 (≈ 12.6 µM) | 6.07 ± 0.05 (≈ 12.2 µM) | 6.21 ± 0.18 (≈ 12.5 µM) | 6.64 ± 1.1 (≈ 13.4 µM) | 0.019 ± 0.001 (≈ 0.0382 µM) | 0.061 ± 0.008 (≈ 0.123 µM) | 0.079 (≈ 0.159 µM) | 0.018 ± 0.005 (≈ 0.0362 µM) | 6.11 ± 0.85 (≈ 12.3 µM) | 9.27 ± 1.05 (≈ 18.7 µM) | > 49 | 2.53 (≈ 5.09 µM) | 2.51 (≈ 5.05 µM) | > 49 | 0.014 ± 0.001 (≈ 0.0282 µM) | 100 | 204 to 205 | 2.48 (≈ 4.99 µM) | activity against ITRA-resistant isolate ASFU13, in words [18]: active; activity against ITRA-resistant isolate ASFU20, in words [19]: active; MIC values against ITRA-resistant isolate carrying M220T mutation (ASFU77), in words [16]: in the micromolar range; activity against ITRA-resistant isolate ASFU23, in words [22]: active
C[C@@H](n1ncc2cc(-c3ccc([N+](=O)[O-])cc3)cn2c1=O)[C@](O)(Cn1cncn1)c1ccc(F)cc1F [Compound 50, 3-[(1R,2R)-2-(2,4-Difluorophenyl)-2-hydroxy-1-methyl-3-(1,2,4-triazol-1-yl)propyl]-7-(4-nitrophenyl)-3H-pyrrolo[1,2-d][1,2,4]triazin-4-one] | < 0.001 | 6.4 ± 1.07 (≈ 12.6 µM) | 8.31 ± 0.52 (≈ 16.4 µM) | 8.23 ± 2.23 (≈ 16.2 µM) | 8.86 (≈ 17.5 µM) | 0.066 ± 0.009 (≈ 0.13 µM) | 0.074 ± 0.038 (≈ 0.146 µM) | 0.039 ± 0.027 (≈ 0.0769 µM) | 0.017 ± 0.007 (≈ 0.0335 µM) | 6.59 ± 0.04 (≈ 13 µM) | > 100 | > 50 | 3.08 (≈ 6.07 µM) | 21.3 (≈ 42 µM) | > 50 | 0.018 ± 0.001 (≈ 0.0355 µM) | 100 | 130 to 131 | 43 (≈ 84.7 µM) | –

Source: patent US10626115B2, “Fused pyrimidinone and triazinone derivatives containing bridged nitrogen, their process of preparation and their therapeutic uses as antifungal and/or antiparasitic agents” (UNIVERSITE DE NANTES, priority 2015, dated 2020)
